In patent US20070123546A1, “2-amino-7,8-dihydro-6H-pyrido[4,3-d]pyrimidin-5-ones” (Chiron Corporation, priority 2005, published 2007):

Biological target: His-tagged N-terminal ATP binding domain (amino acid residues 9-236) of HSP90α (Homo sapiens, UniProt P07900)
Experiment: HSP90 inhibitor binding potency: TRF competition binding assay
Details: Table 2; competition with biotinylated radicicol
Protocol: HSP90 Inhibitor Binding Potency: TRF Binding Assay
In this example, the binding potency of HSP90 inhibitors as measured by a TRF binding assay is described.
TRF competition binding assays were performed to determine the binding potency (IC50 values) of HSP90 inhibitors. Purified His-tagged N-terminal ATP binding domain (amino acid residues 9-236) of HSP90α (HSP90α GeneID: 3320; mRNA Sequence NM_005348) was incubated for two hours at room temperature in binding buffer (50 mM HEPES, 6 mM MgCl2, 20 mM KCl and 0.1% BSA) with biotinylated radicicol and progressively higher concentrations of the competing compounds. A fraction of the mixture was transferred to capture plates (coated with streptavidin) and incubated for one hour at room temperature. After washing with DELFIA wash buffer, europium-labeled anti-his antibody was added and incubated for two hours at room temperature, followed by washing with DELFIA buffer. DELFIA enhancement solution was then added. After gentle shaking for 10 minutes, the plates were read in VICTOR for europium counts.

Row | Structure (SMILES) | IC50 [µM]
1 | Cc1nc(N)nc2c1C(=O)N[C@@H](c1ccc(F)cc1-c1nccc(N3CCCC3)n1)C2 [Compound 49] | > 10
2 | Cc1nc(N)nc2c1C(=O)N[C@@H](c1ccc(F)cc1C#N)C2 [Compound 50, 2-((R)-2-Amino-4-methyl-5-oxo-5,6,7,8-tetrahydro-pyrido[4,3-d]pyrimidin-7-yl)-5-fluoro-benzonitrile] | > 10
3 | Nc1ncc2c(n1)C[C@H](c1ccc(F)cc1-c1cccnc1)NC2=O [Compound 62, (R)-2-Amino-7-(4-fluoro-2-pyridin-3-yl-phenyl)-7,8-dihydro-6H-pyrido[4,3-d]pyrimidin-5-one] | < 10
4 | COc1ncc(-c2cc(F)ccc2[C@H]2Cc3nc(N)ncc3C(=O)N2)c(OC)n1 [Compound 63, (R)-2-Amino-7-[2-(2,4-dimethoxy-pyrimidin-5-yl)-4-fluoro-phenyl]-7,8-dihydro-6H-pyrido[4,3-d]pyrimidin-5-one] | > 10
5 | COc1nc(-c2ccccc2[C@H]2Cc3nc(N)nc(C)c3C(=O)N2)ncc1F [Compound 64, (R)-2-Amino-7-[2-(5-fluoro-4-methoxy-pyrimidin-2-yl)-phenyl]-4-methyl-7,8-dihydro-6H-pyrido[4,3-d]pyrimidin-5-one] | < 10
6 | COc1ccc(-c2cc(F)ccc2[C@H]2Cc3nc(N)nc(C)c3C(=O)N2)s1 [Compound 65, (R)-2-Amino-7-[4-fluoro-2-(5-methoxy-thiophen-2-yl)-phenyl]-4-methyl-7,8-dihydro-6H-pyrido[4,3-d]pyrimidin-5-one] | < 10
7 | Cc1nc(N)nc2c1C(=O)N[C@@H](c1ccccc1Br)C2 [Compound 66, (R)-2-Amino-7-(2-bromo-phenyl)-4-methyl-7,8-dihydro-6H-pyrido[4,3-d]pyrimidin-5-one] | > 10
8 | COc1nc(-c2ccccc2[C@H]2Cc3nc(N)nc(C)c3C(=O)N2)cs1 [Compound 67, (R)-2-Amino-7-[2-(2-methoxy-thiazol-4-yl)-phenyl]-4-methyl-7,8-dihydro-6H-pyrido[4,3-d]pyrimidin-5-one] | < 10
9 | COc1ncc(-c2ccccc2[C@H]2Cc3nc(N)nc(C)c3C(=O)N2)nc1OC [Compound 68] | < 10
10 | COc1cncc(-c2ccccc2[C@H]2Cc3nc(N)nc(C)c3C(=O)N2)n1 [Compound 69, (R)-2-Amino-7-[2-(6-methoxy-pyrazin-2-yl)-phenyl]-4-methyl-7,8-dihydro-6H-pyrido[4,3-d]pyrimidin-5-one] | < 10
11 | CCc1nc(N)nc2c1C(=O)N[C@@H](c1ccc(F)cc1Br)C2 [Compound 70, (R)-2-Amino-7-(2-bromo-4-fluoro-phenyl)-4-ethyl-7,8-dihydro-6H-pyrido[4,3-d]pyrimidin-5-one] | > 10
12 | CCOc1cncc(-c2ccccc2[C@H]2Cc3nc(N)nc(C)c3C(=O)N2)n1 [Compound 71, (R)-2-Amino-7-[2-(6-ethoxy-pyrazin-2-yl)-phenyl]-4-methyl-7,8-dihydro-6H-pyrido[4,3-d]pyrimidin-5-one] | < 10
13 | CCOc1nc(-c2cc(F)ccc2[C@H]2Cc3nc(N)nc(C)c3C(=O)N2)ncc1F [Compound 72] | < 10
14 | COc1cccc(-c2cc(F)ccc2[C@H]2Cc3nc(N)nc(C)c3C(=O)N2)c1OC [Compound 73, (R)-2-Amino-7-(5-fluoro-2,3′-dimethoxy-biphenyl-2-yl)-4-methyl-7,8-dihydro-6H-pyrido[4,3-d]pyrimidin-5-one] | < 10
15 | CCOc1cccc(-c2cc(F)ccc2[C@H]2Cc3nc(N)nc(C)c3C(=O)N2)n1 [Compound 74] | < 10
16 | CCOc1nc(-c2cc(F)ccc2[C@H]2Cc3nc(N)nc(C)c3C(=O)N2)cnc1N [Compound 75, (R)-2-Amino-7-[2-(5-amino-6-ethoxy-pyrazin-2-yl)-4-fluoro-phenyl]-4-methyl-7,8-dihydro-6H-pyrido[4,3-d]pyrimidin-5-one] | < 10
17 | CCc1nc(N)nc2c1C(=O)N[C@@H](c1ccccc1-c1cccc(OC)n1)C2 [Compound 77, (R)-2-Amino-4-ethyl-7-[2-(6-methoxy-pyndin-2-yl)-phenyl]-7,8-dihydro-6H-pyrido[4,3-d]pyrimidin-5-one] | < 10
18 | CCc1nc(N)nc2c1C(=O)N[C@@H](c1ccccc1-c1cncc(OC)n1)C2 [Compound 78, (R)-2-Amino-4-ethyl-7-[2-(6-methoxy-pyrazin-2-yl)-phenyl]-7,8-dihydro-6H-pyrido[4,3-d]pyrimidin-5-one] | < 10
19 | CCc1nc(N)nc2c1C(=O)N[C@@H](c1ccccc1-c1cnc(N)c(OC)n1)C2 [Compound 79, (R)-2-Amino-7-[2-(5-amino-6-methoxy-pyrazin-2-yl)-phenyl]-4-ethyl-7,8-dihydro-6H-pyrido[4,3-d]pyrimidin-5-one] | < 10
20 | CCc1nc(N)nc2c1C(=O)N[C@@H](c1ccccc1-c1csc(OC)n1)C2 [Compound 80, (R)-2-Amino-4-ethyl-7-[2-(2-methoxy-thiazol-4-yl)-phenyl]-7,8-dihydro-6H-pyrido[4,3-d]pyrimidin-5-one] | > 10
21 | CCc1nc(N)nc2c1C(=O)N[C@@H](c1ccc(F)cc1-c1cccc(OC)n1)C2 [Compound 81, (R)-2-Amino-4-ethyl-7-[4-fluoro-2-(6-methoxy-pyridin-2-yl)-phenyl]-7,8-dihydro-6H-pyrido[4,3-d]pyrimidin-5-one] | < 10

Now from value to compound:

Row | IC50 [µM] | Structure (SMILES)
22 | < 10 | COc1cncc(-c2ccccc2[C@H]2Cc3nc(N)ncc3C(=O)N2)n1 [Compound 42, (R)-2-Amino-7-[2-(6-methoxy-pyrazin-2-yl)-phenyl]-7,8-dihydro-6H-pyrido[4,3-d]pyrimidin-5-one]
23 | < 10 | COc1cccc(-c2ccccc2[C@H]2Cc3nc(N)ncc3C(=O)N2)n1 [Compound 43, (R)-2-Amino-7-[2-(6-methoxy-pyridin-2-yl)-phenyl]-7,8-dihydro-6H-pyrido[4,3-d]pyrimidin-5-one]
24 | < 10 | COc1nc(-c2cc(F)ccc2[C@H]2Cc3nc(N)nc(C)c3C(=O)N2)ccc1N [Compound 44, (R)-2-Amino-7-[2-(5-amino-6-methoxy-pyridin-2-yl)-4-fluoro-phenyl]-4-methyl-7,8-dihydro-6H-pyrido[4,3-d]pyrimidin-5-one]
25 | < 10 | COc1nc(-c2ccccc2[C@H]2Cc3nc(N)nc(C)c3C(=O)N2)ccc1N [Compound 45, (R)-2-Amino-7-[2-(5-amino-6-methoxy-pyridin-2-yl)-phenyl]-4-methyl-7,8-dihydro-6H-pyrido[4,3-d]pyrimidin-5-one]
26 | < 10 | COc1nc(-c2cc(F)ccc2[C@H]2Cc3nc(N)ncc3C(=O)N2)ccc1N [Compound 46, (R)-2-Amino-7-[2-(5-amino-6-methoxy-pyridin-2-y1)-4-fluoro-phenyl]-7,8-dihydro-6H-pyrido[4,3-d]pyrimidin-5-one]
27 | < 10 | CCOc1ccnc(-c2cc(F)ccc2[C@H]2Cc3nc(N)nc(C)c3C(=O)N2)n1 [Compound 47, (R)-2-Amino-7-[2-(4-ethoxy-pyrimidin-2-yl)-4-fluoro-phenyl]-4-methyl-7,8-dihydro-6H-pyrido[4,3-d]pyrimidin-5-one]
28 | < 10 | COc1ccnc(-c2cc(F)ccc2[C@H]2Cc3nc(N)nc(C)c3C(=O)N2)n1 [Compound 48]
29 | < 10 | COc1cnc(-c2cc(F)ccc2[C@H]2Cc3nc(N)nc(C)c3C(=O)N2)nc1OC [Compound 51, (R)-2-Amino-7-[2-(4,5-4-methoxy-pyrimidin-2-yl)-4-fluoro-phenyl]-4-methyl-7,8-dihydro-6H-pyrido[4,3-d]pyrimidin-5-one]
30 | < 10 | COc1nc(-c2cc(F)ccc2[C@H]2Cc3nc(N)nc(C)c3C(=O)N2)ncc1Cl [Compound 52, (R)-2-Amino-7-[2-(5-chloro-4-methoxy-pyrimidin-2-yl)-4-fluoro-phenyl]-4-methyl-7,8-dihydro-6H-pyrido[4,3-d]pyrimidm-5-one]
31 | < 10 | COc1cncc(-c2cc(F)ccc2[C@H]2Cc3nc(N)ncc3C(=O)N2)n1 [Compound 53, (R)-2-Amino-7-[4-fluoro-2-(6-methoxy-pyrazin-2-yl)-phenyl]-7,8-dihydro-6H-pyrido[4,3-d]pyrimidin-5-one]
32 | < 10 | COc1ccccc1-c1cc(F)ccc1[C@H]1Cc2nc(N)ncc2C(=O)N1 [Compound 54, (R)-2-Amino-7-(5-fluoro-2′-methoxy-biphenyl-2-yl)-7,8-dihydro-6H-pyrido[4,3-d]pyrimidin-5-one]
33 | < 10 | COc1ccc(F)cc1-c1cc(F)ccc1[C@H]1Cc2nc(N)ncc2C(=O)N1 [Compound 55, (R)-2-Ammo-7-(5,5′-difluoro-2′-methoxy-biphenyl-2-yl)-7,8-dihydro-6H-pyrido[4,3-d]pyrimidin-5-one]
34 | < 10 | COc1cc(F)ccc1-c1cc(F)ccc1[C@H]1Cc2nc(N)ncc2C(=O)N1 [Compound 56, (R)-2-Amino-7-(5,4′-difluoro-2′-methoxy-biphenyl-2-yl)-7,8-dihydro-6H-pyrido[4,3-d]pyrimidin-5-one]
35 | < 10 | Cc1cccc(-c2cc(F)ccc2[C@H]2Cc3nc(N)ncc3C(=O)N2)c1 [Compound 58, (R)-2-Amino-7-(5-fluoro-3′-methyl-biphenyl-2-yl)-7,8-dihydro-6H-pyrido[4,3-d]pyrimidin-5-one]
36 | < 10 | Cc1ccc(-c2cc(F)ccc2[C@H]2Cc3nc(N)ncc3C(=O)N2)cc1 [Compound 60, (R)-2-Amino-7-(5-fluoro-4′-methyl-biphenyl-2-yl)-7,8-dihydro-6H-pyrido[4,3-d]pyrimidin-5-one]
37 | < 10 | Cc1cc(F)ccc1-c1cc(F)ccc1[C@H]1Cc2nc(N)ncc2C(=O)N1 [Compound 61, (R)-2-Amino-7-(5,4′-difluoro-2′-methyl-biphenyl-2-yl)-7,8-dihydro-6H-pyrido[4,3-d]pyrimidin-5-one]
